Results from PubChem BioAssay (NCI).
“And” between values parts separate entries of the source, which are not always exact repeats. Equal values may be shown once.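 Interpolation was linear, between the two tested concentrations surrounding the appropriate level; five concentrations were tested over 48 hours in 96-well plates. At the GI50, growth is halved. TGI: concentration producing complete growth inhibition.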

Assays:
Experiment in all cases: DTP human tumour cell line panel, 48 h
786-0 renal = tested on: 786-0 renal
HL-60(TB) leukemia = tested on: HL-60(TB) leukemia
SK-MEL-2 melanoma = tested on: SK-MEL-2 melanoma
SR leukemia = tested on: SR leukemia
DU-145 prostate = tested on: DU-145 prostate
KM12 colon = tested on: KM12 colon
SNB-75 CNS = tested on: SNB-75 CNS
UACC-257 melanoma = tested on: UACC-257 melanoma
HT29 colon = tested on: HT29 colon
UACC-62 melanoma = tested on: UACC-62 melanoma

Row | SMILES | TGI (786-0 renal) | TGI (HL-60(TB) leukemia) | TGI (SK-MEL-2 melanoma) | TGI (SR leukemia) | TGI (DU-145 prostate) | TGI (KM12 colon) | TGI (SNB-75 CNS) | TGI (UACC-257 melanoma) | TGI (HT29 colon) | TGI (UACC-62 melanoma) | GI50 (786-0 renal) | GI50 (HL-60(TB) leukemia) | GI50 (SK-MEL-2 melanoma) | GI50 (SR leukemia) | GI50 (DU-145 prostate) | GI50 (KM12 colon) | GI50 (SNB-75 CNS) | GI50 (UACC-257 melanoma) | GI50 (HT29 colon) | GI50 (UACC-62 melanoma)
1 | CCCCCCCCCCCCCC(=O)NO | 18.2 µM | 23.7 µM | 47.6 µM | > 100 µM | 29.6 µM | 47.2 µM | 40 µM | 77.3 µM | 25.3 µM | 11.5 µM | – | – | – | – | – | – | – | – | – | –
2 | O=c1oc2ccc(I)cc2c(=O)n1-c1ccc(I)cc1F | 6.49 µM | – | 2.55 µM | > 38.2 µM | 17.9 µM | 5.23 µM | 2.57 µM | 5.6 µM | 15.3 µM | 1.11 µM | 2.21 µM | 0.564 µM | 0.391 µM | 0.61 µM | 0.684 µM | 2.2 µM | 0.32 µM | 0.522 µM | 3.43 µM | 0.279 µM
3 | Cn1c2ccccc2c2c(=O)n(CCCC(=O)NCCc3cnc[nH]3)c3c(-c4ccccc4)nnn3c21 | 8.15 µM | 28.4 µM | 21 µM | > 50 µM | 13.8 µM | 16.9 µM | 18.6 µM | 21.6 µM | 17.9 µM | 17.6 µM | 2.19 µM | 11.8 µM | 10.3 µM | 4.03 µM | 6.88 µM | 8.16 µM | 10.4 µM | 12 µM | 8.55 µM | 9.87 µM
4 | N#Cc1ccc(C(=O)c2cnn(-c3ccc(F)cc3)c2N)cc1 | > 25 µM | > 25 µM | > 25 µM | > 25 µM | > 25 µM | > 25 µM | > 25 µM | > 25 µM | > 25 µM | > 25 µM | > 25 µM | > 25 µM | > 25 µM | > 25 µM | > 25 µM | > 25 µM | > 25 µM | > 25 µM | > 25 µM | > 25 µM
5 | CC(=O)OCC1OC([S-])C(OC(C)=O)C(OC(C)=O)C1OC(C)=O.[Au+].c1ccc(CN2[CH-]N(Cc3ccccc3)C(c3ccccc3)=C2c2ccccc2)cc1 | 3.63 µM and 1.18 µM | 7.57 µM and 2.35 µM | 8.11 µM and 2.2 µM | 8.26 µM and 47.5 µM | 8.09 µM and 3.59 µM | 16.9 µM and 5.14 µM | 7.21 µM and 4.4 µM | 9.22 µM and 3.12 µM | 12.6 µM and 4.47 µM | 5.62 µM and 1.14 µM | 1.84 µM and 0.384 µM | 2.57 µM and 0.573 µM | 2.77 µM and 0.656 µM | 2.7 µM and 0.364 µM | 2.86 µM and 0.509 µM | 4.32 µM and 0.98 µM | 1.83 µM and 0.412 µM | 2.26 µM and 1 µM | 3.38 µM and 1.02 µM | 2.15 µM and 0.249 µM
6 | O=C(Nc1cccc(-n2ccc3c(NC(=O)c4ccccc4)nccc32)c1)c1ccc(Cl)c(Cl)c1 | 1.59 µM | 0.977 µM | 2.79 µM | – | 0.855 µM | 0.942 µM | 1.22 µM | 2.98 µM | 0.84 µM | 1.63 µM | 0.242 µM | 0.188 µM | 1.12 µM | 0.0408 µM | 0.22 µM | 0.0554 µM | 0.147 µM | 1.2 µM | 0.0833 µM | 0.0535 µM
